From patent US20190047983A1, “MODIFIED PROCESS FOR THE PREPARATION OF CERITINIB AND AMORPHOUS FORM OF CERITINIB” (NATCO PHARMA LIMITED, priority 2016, published 2019)

Test: Stability of the amorphous form, confirmed by PXRD, DSC and TGA
Assay type: physicochemical
Conditions: solid amorphous form
Text: According to the present invention, the obtained amorphous form of Ceritinib is stable up to 180 days. The stability of the amorphous form is confirmed by PXRD, DSC and TGA.
FIG. 2: Powder X-ray diffractogram of an amorphous form of ceritinib of 180 days

stability towards polymorphic conversion: stable towards polymorphic conversion | stability of the amorphous form (time for which it is stable) (confirmed by PXRD, DSC and TGA, storage conditions not given): up to 180 days
Compound: Cc1cc(Nc2ncc(Cl)c(Nc3ccccc3S(=O)(=O)C(C)C)n2)c(OC(C)C)cc1C1CCNCC1 [amorphous form of Ceritinib]
